Holding throughout (assay type): functional
One assay relates to Escherichia coli. The assay can be described thus: Antimicrobial activity against Escherichia coli MTCC 443 after 24 and 48 hr by serial broth dilution method.
In a further assay the test system is Aspergillus niger. The assay can be described thus: Antimicrobial activity against Aspergillus niger MTCC 282.
The test system of the next assay is Streptococcus pyogenes. The assay can be described thus: Antimicrobial activity against Streptococcus pyogenes MTCC 442 after 24 and 48 hr by serial broth dilution method.
The next assay concerns Aspergillus clavatus. The assay can be described thus: Antimicrobial activity against Aspergillus clavatus MTCC 1323.
A further assay concerns Candida albicans. The assay can be described thus: Antimicrobial activity against Candida albicans MTCC 227.
The test system of the next assay is Staphylococcus aureus. The assay can be described thus: Antimicrobial activity against Staphylococcus aureus MTCC 96 after 24 and 48 hr by serial broth dilution method. In general terms: Broth dilution looks for growth in wells or tubes with falling amounts of substance.
A further assay relates to Pseudomonas aeruginosa. Kind of assay: Antimicrobial activity against Pseudomonas aeruginosa MTCC 1688 after 24 and 48 hr by serial broth dilution method.

14 compounds from ChEMBL document CHEMBL3046196, “Dimeric 2-(2-chlorophenyl)-quinazolin-4-ones as potential antimicrobial agents” (2012) can be followed below.

Molecules are shown by their SMILES. Converted amounts (≈) assume the structure as drawn.

With `Cc1ccc(C)c(-n2c(-c3ccccc3Cl)nc3ccc(CCn4c(-c5ccccc5Cl)nc5ccccc5c4=O)cc3c2=O)c1`, the MIC99 stood at 100 µg/mL (≈ 155 µM) in the assay with Escherichia coli; 500 µg/mL (≈ 777 µM) with Aspergillus niger; 25 µg/mL (≈ 38.8 µM) against Streptococcus pyogenes; 500 µg/mL (≈ 777 µM) in the assay on Aspergillus clavatus; 200 µg/mL (≈ 311 µM) against Candida albicans; 100 µg/mL (≈ 155 µM) in the assay with Staphylococcus aureus. Moreover, the MIC99 in the assay with Pseudomonas aeruginosa stood at 200 µg/mL (≈ 311 µM).
`COc1ccc(-n2c(-c3ccccc3Cl)nc3ccc(CCn4c(-c5ccccc5Cl)nc5ccccc5c4=O)cc3c2=O)c([N+](=O)[O-])c1`: the MIC99 against Escherichia coli was 100 µg/mL (≈ 145 µM); in the assay with Aspergillus niger it was 500 µg/mL (≈ 724 µM); with Streptococcus pyogenes, 100 µg/mL (≈ 145 µM); with Aspergillus clavatus it was 500 µg/mL (≈ 724 µM); in the assay with Candida albicans, 100 µg/mL (≈ 145 µM); with Staphylococcus aureus it was 100 µg/mL (≈ 145 µM). The compound further came in with an MIC99 against Pseudomonas aeruginosa of 500 µg/mL (≈ 724 µM).
With `Cc1ccc(-n2c(-c3ccccc3Cl)nc3ccc(CCn4c(-c5ccccc5Cl)nc5ccccc5c4=O)cc3c2=O)c([N+](=O)[O-])c1`, the MIC99 against Escherichia coli worked out at 200 µg/mL (≈ 296 µM); with Aspergillus niger, 1000 µg/mL (≈ 1480 µM); in the assay with Streptococcus pyogenes, 25 µg/mL (≈ 37.1 µM); in the assay with Aspergillus clavatus, 100 µg/mL (≈ 148 µM); in the assay with Candida albicans, 500 µg/mL (≈ 741 µM); in the assay with Staphylococcus aureus, 100 µg/mL (≈ 148 µM). The same compound yielded an MIC99 against Pseudomonas aeruginosa of 500 µg/mL (≈ 741 µM).
For `O=c1c2ccccc2nc(-c2ccccc2Cl)n1CCc1ccc2nc(-c3ccccc3Cl)n(-c3ccccc3[N+](=O)[O-])c(=O)c2c1`, the MIC99 in the assay with Escherichia coli came out at 100 µg/mL (≈ 151 µM); against Aspergillus niger it was 100 µg/mL (≈ 151 µM); in the assay with Streptococcus pyogenes, 12.5 µg/mL (≈ 18.9 µM); in the assay with Aspergillus clavatus, 1000 µg/mL (≈ 1510 µM); against Candida albicans it was 100 µg/mL (≈ 151 µM); in the assay with Staphylococcus aureus, 200 µg/mL (≈ 303 µM). In addition, the MIC99 with Pseudomonas aeruginosa turned out to be 200 µg/mL (≈ 303 µM).
On to `O=c1c2ccccc2nc(-c2ccccc2Cl)n1CCc1ccc2nc(-c3ccccc3Cl)n(-c3cccc([N+](=O)[O-])c3)c(=O)c2c1`, for which the MIC99 against Escherichia coli is 50 µg/mL (≈ 75.7 µM); against Aspergillus niger, 1000 µg/mL (≈ 1510 µM); in the assay with Streptococcus pyogenes it was 50 µg/mL (≈ 75.7 µM); in the assay with Aspergillus clavatus, 100 µg/mL (≈ 151 µM); against Candida albicans, 1000 µg/mL (≈ 1510 µM); against Staphylococcus aureus, 50 µg/mL (≈ 75.7 µM). The compound further showed an MIC99 against Pseudomonas aeruginosa of 100 µg/mL (≈ 151 µM).
On to `O=c1c2ccccc2nc(-c2ccccc2Cl)n1CCc1ccc2nc(-c3ccccc3Cl)n(-c3ccc([N+](=O)[O-])cc3)c(=O)c2c1`, for which the MIC99 turned out to be 100 µg/mL (≈ 151 µM) in the assay on Escherichia coli; 500 µg/mL (≈ 757 µM) with Aspergillus niger; 100 µg/mL (≈ 151 µM) against Streptococcus pyogenes; 500 µg/mL (≈ 757 µM) in the assay with Aspergillus clavatus; 500 µg/mL (≈ 757 µM) in the assay with Candida albicans; 200 µg/mL (≈ 303 µM) against Staphylococcus aureus. In addition, in the assay with Pseudomonas aeruginosa, the MIC99 amounted to 500 µg/mL (≈ 757 µM).
Consider `O=c1c2ccccc2nc(-c2ccccc2Cl)n1CCc1ccc2nc(-c3ccccc3Cl)n(-c3ccc(Cl)c(Cl)c3)c(=O)c2c1`, for which the MIC99 in the assay with Escherichia coli came out at 200 µg/mL (≈ 292 µM); against Aspergillus niger, 500 µg/mL (≈ 731 µM); against Streptococcus pyogenes, 50 µg/mL (≈ 73.1 µM); against Aspergillus clavatus, 100 µg/mL (≈ 146 µM); with Candida albicans, 100 µg/mL (≈ 146 µM); against Staphylococcus aureus it was 50 µg/mL (≈ 73.1 µM). The compound further returned an MIC99 in the assay on Pseudomonas aeruginosa of 100 µg/mL (≈ 146 µM).
With `O=c1c2ccccc2nc(-c2ccccc2Cl)n1CCc1ccc2nc(-c3ccccc3Cl)n(-c3c(Cl)cc([N+](=O)[O-])cc3Cl)c(=O)c2c1`, the MIC99 came to 500 µg/mL (≈ 685 µM) against Escherichia coli; 100 µg/mL (≈ 137 µM) against Aspergillus niger; 50 µg/mL (≈ 68.5 µM) against Streptococcus pyogenes; 100 µg/mL (≈ 137 µM) against Aspergillus clavatus; 500 µg/mL (≈ 685 µM) in the assay with Candida albicans; 100 µg/mL (≈ 137 µM) in the assay with Staphylococcus aureus. The compound also yielded an MIC99 in the assay on Pseudomonas aeruginosa of 500 µg/mL (≈ 685 µM).
On to `O=c1c2ccccc2nc(-c2ccccc2Cl)n1CCc1ccc2nc(-c3ccccc3Cl)n(-c3ccccc3Cl)c(=O)c2c1`, for which the MIC99 was determined as 500 µg/mL (≈ 769 µM) against Escherichia coli; 100 µg/mL (≈ 154 µM) against Aspergillus niger; 50 µg/mL (≈ 76.9 µM) against Streptococcus pyogenes; 100 µg/mL (≈ 154 µM) in the assay on Aspergillus clavatus; 500 µg/mL (≈ 769 µM) with Candida albicans; 200 µg/mL (≈ 308 µM) against Staphylococcus aureus. This compound yielded an MIC99 in the assay with Pseudomonas aeruginosa of 500 µg/mL (≈ 769 µM).
Take `Cc1cccc(-n2c(-c3ccccc3Cl)nc3ccc(CCn4c(-c5ccccc5Cl)nc5ccccc5c4=O)cc3c2=O)c1C`: the MIC99 was found to be 50 µg/mL (≈ 77.7 µM) against Escherichia coli; 500 µg/mL (≈ 777 µM) in the assay with Aspergillus niger; 100 µg/mL (≈ 155 µM) against Streptococcus pyogenes; 500 µg/mL (≈ 777 µM) with Aspergillus clavatus; 500 µg/mL (≈ 777 µM) with Candida albicans; 500 µg/mL (≈ 777 µM) against Staphylococcus aureus. Besides, the MIC99 with Pseudomonas aeruginosa was found to be 100 µg/mL (≈ 155 µM).
With `Cc1ccc(-n2c(-c3ccccc3Cl)nc3ccc(CCn4c(-c5ccccc5Cl)nc5ccccc5c4=O)cc3c2=O)c(C)c1`, the MIC99 was 50 µg/mL (≈ 77.7 µM) against Escherichia coli; 500 µg/mL (≈ 777 µM) against Aspergillus niger; 50 µg/mL (≈ 77.7 µM) against Streptococcus pyogenes; 500 µg/mL (≈ 777 µM) against Aspergillus clavatus; 100 µg/mL (≈ 155 µM) in the assay with Candida albicans; 50 µg/mL (≈ 77.7 µM) in the assay with Staphylococcus aureus. The MIC99 in the assay with Pseudomonas aeruginosa was 100 µg/mL (≈ 155 µM).
For `O=c1c2ccccc2nc(-c2ccccc2Cl)n1CCc1ccc2nc(-c3ccccc3Cl)n(-c3ccc(Br)cc3)c(=O)c2c1`, the MIC99 was 200 µg/mL (≈ 288 µM) in the assay with Escherichia coli; 500 µg/mL (≈ 720 µM) with Aspergillus niger; 500 µg/mL (≈ 720 µM) in the assay on Streptococcus pyogenes; 1000 µg/mL (≈ 1440 µM) against Aspergillus clavatus; 1000 µg/mL (≈ 1440 µM) against Candida albicans; 500 µg/mL (≈ 720 µM) with Staphylococcus aureus. The compound also returned an MIC99 against Pseudomonas aeruginosa of 200 µg/mL (≈ 288 µM).
`CC1(C)S[C@@H]2[C@H](NC(=O)[C@H](N)c3ccccc3)C(=O)N2[C@H]1C(=O)O` [AMPICILLIN]: the MIC99 against Escherichia coli was determined as 100 µg/mL (≈ 286 µM); against Streptococcus pyogenes, 100 µg/mL (≈ 286 µM); against Staphylococcus aureus, 250 µg/mL (≈ 715 µM); with Pseudomonas aeruginosa, 100 µg/mL (≈ 286 µM).
Consider `COC1=CC(=O)C[C@@H](C)[C@]12Oc1c(Cl)c(OC)cc(OC)c1C2=O` [GRISEOFULVIN], for which the MIC99 with Aspergillus niger was 100 µg/mL (≈ 283 µM); in the assay with Aspergillus clavatus, 100 µg/mL (≈ 283 µM); against Candida albicans it was 500 µg/mL (≈ 1420 µM).

As usually defined, the MIC99 is the lowest concentration that inhibits either 99% of growth or 99% of the strains tested, depending on the study.
